Source: patent US20240067632A1, “WEE1 Degrading Compounds and Uses Thereof” (Bristol-Myers Squibb Company, priority 2022, published 2024)

Columns and labels:
WEE1 = target: T1, WEE1 (Homo sapiens, UniProt P30291+Q96SW2); assay: WEE1-ePL degradation assay (LentiX-WEE1-ePL-GSPT1-ND cells, InCELL Hunter luminescence, 4 h); format: cell-based; conditions: 293T-LentiX WEE1-ePL cells; for 293T-LentiX WEE1-ePL Degradation 4 hr (Ymin): lower limit of the fit (0 = luciferase inhibitor, Ymax = DMSO control); for DC50: read-out: 293T-LentiX WEE1-ePL Degradation 4 hr (EC50)
T1 construct: C-terminal ePL-tagged (DiscoverX, Fremont, CA) full-length WEE1 expression construct; expressed in transfected cells; host or cells: LentiX-HEK293T (Invitrogen), lentiviral transduction; co-expressing GSPT1-GN (G576N, lacking the first 158 amino acids)
Procedure, shortened: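 Luminescent readout (InCELL Hunter, 30 min RT) of WEE1-ePL levels in transduced HEK293T cells after 4 h compound exposure at 37 °C. Dosing: 10 points, 3-fold steps, top 1 uM or 10 uM. EC50 from four-parameter logistic fit; Ymax set by DMSO.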

MKN45 cells = assay: MKN45 cell proliferation assay (Cell-Titer-Glo, 120 h); format: cell-based; conditions: for EC50: Homo sapiens, MKN-45, 120 h, Cell-Titer-Glo, growth inhibition, read-out: MKN45 Cell Prolif. 120 hr (EC50); for MKN45 Cell Prolif. 120 hr (Ymin-Obs): minimal percent of DMSO control observed in the concentrations tested
Procedure, shortened: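 Cells seeded at 400/well onto pre-printed 10-point half-log dilutions (top 1 or 10 uM, 0.1% DMSO final), in triplicate, and grown 120 h at 37 C. Viability by Cell-Titer-Glo luminescence, blank-subtracted and normalised to DMSO; EC50 from four-parameter logistic fit, with observed minimal % of control recorded as Ymin-obs.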

Row | 293T-LentiX WEE1-ePL Degradation 4 hr (Ymin) (WEE1) | DC50 (WEE1) | EC50 (MKN45 cells) | Compound | MKN45 Cell Prolif. 120 hr (Ymin-Obs) (MKN45 cells)
1 | 43.98 | 0.0133 µM | 0.166 µM | O=C1CCC(N2Cc3cc(O[C@H]4CCN(Cc5cnc6ccc(F)c(F)c6c5)C4)ccc3C2=O)C(=O)N1 (stereo partly drawn) [3-(5-{[(3S)-1-[(5,6-difluoroquinolin-3-yl)methyl]pyrrolidin-3-yl]oxy}-1-oxo-2,3-dihydro-1H-isoindol-2-yl)piperidine-2,6-dione] | 44.73
2 | 35.675 | 0.0259 µM | 0.955 µM | Cc1cc(CN2CC[C@H](Oc3ccc4c(c3)CN(C3CCC(=O)NC3=O)C4=O)C2)cnc1C (stereo partly drawn) [3-(5-{[(3S)-1-[(5,6-dimethylpyridin-3-yl)methyl]pyrrolidin-3-yl]oxy}-1-oxo-2,3-dihydro-1H-isoindol-2-yl)piperidine-2,6-dione] | 43.03
3 | 28.365 | 0.00151 µM | 0.00808 µM | Cc1ccc2c(F)c(CN3CC[C@H](Oc4ccc5c(c4)CN(C4CCC(=O)NC4=O)C5=O)C3)ccc2n1 (stereo partly drawn) [3-(5-{[(3S)-1-[(5-fluoro-2-methylquinolin-6-yl)methyl]pyrrolidin-3-yl]oxy}-1-oxo-2,3-dihydro-1H-isoindol-2-yl)piperidine-2,6-dione] | 9.22
4 | 43.45 | 0.0133 µM | 0.185 µM | O=C1CCC(N2Cc3cc(O[C@H]4CCN(Cc5cc6c(F)cccc6cn5)C4)ccc3C2=O)C(=O)N1 (stereo partly drawn) [3-(5-{[(3S)-1-[(5-fluoroisoquinolin-3-yl)methyl]pyrrolidin-3-yl]oxy}-1-oxo-2,3-dihydro-1H-isoindol-2-yl)piperidine-2,6-dione] | 53.33
5 | 31.52 | 0.012 µM | 0.309 µM | O=C1CCC(N2Cc3cc(O[C@H]4CCN(Cc5cnc6cccc(F)c6c5)C4)ccc3C2=O)C(=O)N1 (stereo partly drawn) [3-(5-{[(3S)-1-[(5-fluoroquinolin-3-yl)methyl]pyrrolidin-3-yl]oxy}-1-oxo-2,3-dihydro-1H-isoindol-2-yl)piperidine-2,6-dione] | 35.14
6 | 61 | 0.0285 µM | 0.833 µM | COc1cncc(CN2CC[C@H](Oc3ccc4c(c3)CN(C3CCC(=O)NC3=O)C4=O)C2)c1C (stereo partly drawn) [3-(5-{[(3S)-1-[(5-methoxy-4-methylpyridin-3-yl)methyl]pyrrolidin-3-yl]oxy}-1-oxo-2,3-dihydro-1H-isoindol-2-yl)piperidine-2,6-dione] | 59.99
7 | 37.55 | 0.0614 µM | 3.32 µM | COc1cncc(CN2CC[C@H](Oc3ccc4c(c3)CN(C3CCC(=O)NC3=O)C4=O)C2)c1 (stereo partly drawn) [3-(5-{[(3S)-1-[(5-methoxypyridin-3-yl)methyl]pyrrolidin-3-yl]oxy}-1-oxo-2,3-dihydro-1H-isoindol-2-yl)piperidine-2,6-dione] | 48.12
8 | 31.91 | 0.00462 µM | 0.0861 µM | Cc1cccc2cnc(CN3CC[C@H](Oc4ccc5c(c4)CN(C4CCC(=O)NC4=O)C5=O)C3)cc12 (stereo partly drawn) [3-(5-{[(3S)-1-[(5-methylisoquinolin-3-yl)methyl]pyrrolidin-3-yl]oxy}-1-oxo-2,3-dihydro-1H-isoindol-2-yl)piperidine-2,6-dione] | 19.01
9 | 26.805 | 0.00531 µM | 0.037 µM | Cc1cccc2ncc(CN3CC[C@H](Oc4ccc5c(c4)CN(C4CCC(=O)NC4=O)C5=O)C3)cc12 (stereo partly drawn) [3-(5-{[(3S)-1-[(5-methylquinolin-3-yl)methyl]pyrrolidin-3-yl]oxy}-1-oxo-2,3-dihydro-1H-isoindol-2-yl)piperidine-2,6-dione] | 12.09
10 | 30.015 | 0.00919 µM | 0.0645 µM | O=C1CCC(N2Cc3cc(O[C@H]4CCN(Cc5cnc6ccc(F)cc6c5)C4)ccc3C2=O)C(=O)N1 (stereo partly drawn) [3-(5-{[(3S)-1-[(6-fluoroquinolin-3-yl)methyl]pyrrolidin-3-yl]oxy}-1-oxo-2,3-dihydro-1H-isoindol-2-yl)piperidine-2,6-dione] | 16.03
11 | 34 | 0.216 µM | 5.05 µM | CN1CCc2ncc(CN3CC[C@H](Oc4ccc5c(c4)CN(C4CCC(=O)NC4=O)C5=O)C3)cc2C1 (stereo partly drawn) [3-(5-{[(3S)-1-[(6-methyl-5,6,7,8-tetrahydro-1,6-naphthyridin-3-yl)methyl]pyrrolidin-3-yl]oxy}-1-oxo-2,3-dihydro-1H-isoindol-2-yl)piperidine-2,6-dione] | 33.405
12 | 29.6 | 0.00938 µM | 0.0336 µM | Cc1ccc2ncc(CN3CC[C@H](Oc4ccc5c(c4)CN(C4CCC(=O)NC4=O)C5=O)C3)cc2c1 (stereo partly drawn) [3-(5-{[(3S)-1-[(6-methylquinolin-3-yl)methyl]pyrrolidin-3-yl]oxy}-1-oxo-2,3-dihydro-1H-isoindol-2-yl)piperidine-2,6-dione] | 13.08
13 | 28.82 | 0.00493 µM | 0.0248 µM | O=C1CCC(N2Cc3cc(O[C@H]4CCN(Cc5cc6ccc(F)cc6cn5)C4)ccc3C2=O)C(=O)N1 (stereo partly drawn) [3-(5-{[(3S)-1-[(7-fluoroisoquinolin-3-yl)methyl]pyrrolidin-3-yl]oxy}-1-oxo-2,3-dihydro-1H-isoindol-2-yl)piperidine-2,6-dione] | 10.88
14 | 28 | 0.00548 µM | 0.0124 µM | COc1ccc2cc(CN3CC[C@H](Oc4ccc5c(c4)CN(C4CCC(=O)NC4=O)C5=O)C3)nnc2c1 (stereo partly drawn) [3-(5-{[(3S)-1-[(7-methoxycinnolin-3-yl)methyl]pyrrolidin-3-yl]oxy}-1-oxo-2,3-dihydro-1H-isoindol-2-yl)piperidine-2,6-dione] | 7.52
15 | 34 | 0.0651 µM | 0.425 µM | CN1CCc2cc(CN3CC[C@H](Oc4ccc5c(c4)CN(C4CCC(=O)NC4=O)C5=O)C3)cnc2C1 (stereo partly drawn) [3-(5-{[(3S)-1-[(7-methyl-5,6,7,8-tetrahydro-1,7-naphthyridin-3-yl)methyl]pyrrolidin-3-yl]oxy}-1-oxo-2,3-dihydro-1H-isoindol-2-yl)piperidine-2,6-dione] | 11.9
16 | 68 | 0.558 µM | > 10 µM | CN1CCc2c(cncc2CN2CC[C@H](Oc3ccc4c(c3)CN(C3CCC(=O)NC3=O)C4=O)C2)C1 (stereo partly drawn) [3-(5-{[(3S)-1-[(7-methyl-5,6,7,8-tetrahydro-2,7-naphthyridin-4-yl)methyl]pyrrolidin-3-yl]oxy}-1-oxo-2,3-dihydro-1H-isoindol-2-yl)piperidine-2,6-dione] | 84.06
17 | 32.315 | 0.0122 µM | 0.0707 µM | Cc1ccc2cc(CN3CC[C@H](Oc4ccc5c(c4)CN(C4CCC(=O)NC4=O)C5=O)C3)ncc2c1 (stereo partly drawn) [3-(5-{[(3S)-1-[(7-methylisoquinolin-3-yl)methyl]pyrrolidin-3-yl]oxy}-1-oxo-2,3-dihydro-1H-isoindol-2-yl)piperidine-2,6-dione] | 15.68
18 | 25.35 | 0.00104 µM | 0.0032 µM | Cc1ccc2cc(CN3CC[C@H](Oc4ccc5c(c4)CN(C4CCC(=O)NC4=O)C5=O)C3)cc(F)c2n1 (stereo partly drawn) [3-(5-{[(3S)-1-[(8-fluoro-2-methylquinolin-6-yl)methyl]pyrrolidin-3-yl]oxy}-1-oxo-2,3-dihydro-1H-isoindol-2-yl)piperidine-2,6-dione] | 7.555
19 | 30.295 | 0.00532 µM | 0.0244 µM | O=C1CCC(N2Cc3cc(O[C@H]4CCN(Cc5cc6cccc(F)c6cn5)C4)ccc3C2=O)C(=O)N1 (stereo partly drawn) [3-(5-{[(3S)-1-[(8-fluoroisoquinolin-3-yl)methyl]pyrrolidin-3-yl]oxy}-1-oxo-2,3-dihydro-1H-isoindol-2-yl)piperidine-2,6-dione] | 10.49
20 | 58 | 0.0191 µM | > 10 µM | CN1CCCc2cc(CN3CC[C@H](Oc4ccc5c(c4)CN(C4CCC(=O)NC4=O)C5=O)C3)cnc21 (stereo partly drawn) [3-(5-{[(3S)-1-[(8-methyl-5,6,7,8-tetrahydro-1,8-naphthyridin-3-yl)methyl]pyrrolidin-3-yl]oxy}-1-oxo-2,3-dihydro-1H-isoindol-2-yl)piperidine-2,6-dione] | 79.28
21 | 32.22 | 0.00641 µM | 0.118 µM | Cc1cccc2cc(CN3CC[C@H](Oc4ccc5c(c4)CN(C4CCC(=O)NC4=O)C5=O)C3)ncc12 (stereo partly drawn) [3-(5-{[(3S)-1-[(8-methylisoquinolin-3-yl)methyl]pyrrolidin-3-yl]oxy}-1-oxo-2,3-dihydro-1H-isoindol-2-yl)piperidine-2,6-dione] | 19.68
